Measured values reported in US10933056B2, “3-(1H-pyrazol-4-yl)pyridine allosteric modulators of the M4 muscarinic acetylcholine receptor” (Merck Sharp & Dohme Corp., priority 2015, dated 2021).

Molecular target: T1, human M4 muscarinic acetylcholine receptor (Homo sapiens, UniProt P08173)
T1 construct: expressed in transfected cells; host or cells: CHO-K1
T1 sequence (P08173 1-479): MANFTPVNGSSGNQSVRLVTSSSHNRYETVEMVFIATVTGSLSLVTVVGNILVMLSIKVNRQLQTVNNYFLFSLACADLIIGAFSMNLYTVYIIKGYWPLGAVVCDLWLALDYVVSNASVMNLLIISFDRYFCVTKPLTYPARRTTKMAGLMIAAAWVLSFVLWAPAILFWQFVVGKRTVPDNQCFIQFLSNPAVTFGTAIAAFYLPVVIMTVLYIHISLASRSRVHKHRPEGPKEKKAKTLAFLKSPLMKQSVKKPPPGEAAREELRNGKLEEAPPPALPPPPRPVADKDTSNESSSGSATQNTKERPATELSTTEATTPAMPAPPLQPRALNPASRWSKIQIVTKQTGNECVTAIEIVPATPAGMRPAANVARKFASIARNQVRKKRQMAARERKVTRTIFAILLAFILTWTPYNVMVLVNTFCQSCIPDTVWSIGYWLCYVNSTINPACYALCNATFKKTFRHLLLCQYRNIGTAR
Test: human FLIPR-based M4 PAM assay (calcium mobilization in CHO-K1 cells with human M4 receptor and Gαqi5)
Format: cell-based
Details: inflection point of dose response curve, acetylcholine at 20% of maximum response, FLIPR Tetra, read-out: M4 PAM IP
Procedure: (§1) In a typical experiment the M4 muscarinic acetylcholine receptor modulating activity of the compounds of the present invention was determined in accordance with the following experimental method. CHO-K1 cells stably transfected with human M4 receptor and chimeric G-protein Gαqi5 (Coward P, et al., Analytical Biochemistry, 270:242-248 (1999)) are thawed from liquid N2 storage, resuspended in growth medium, plated in black, clear bottom 384 well plates, and incubated 16-20 hours at 37° C., 5% CO2. On the day of assay, growth medium is removed, the cells are washed 2 times with wash buffer, and cells are incubated in dye loading buffer at 37° C., 5% CO2 for ˜1 hour. Following dye loading the cell plates are placed in a FLIPR Tetra instrument and while monitoring dye fluorescence (excitation […]), 10 uL of test substance at increasing concentrations is added, and fluorescence values are recorded for 4 min. Next, 10 uL of acetylcholine is added (final concentration calculated so as to achieve 20% of the maximum acetycholine response), and the fluorescence reading is continued for 3.5 min. In some cases, a third addition of acetylcholine (final concentration calculated to achieve 70% of the maximal acetylcholine response) is performed. The resulting dose response curves are fit to a 4 parameter logistic equation and the final result is determined as the inflection point (IP) of the curve
as §1, with “CHO-K1” for “In a typical experiment the M4 muscarinic acetylcholine receptor modulating activity of the compounds of the present invention was determined in accordance with the following experimental method. CHO-K1”, “Gαqi5” for “Gαqi5 (Coward P, et al., Analytical Biochemistry, 270:242-248 (1999))”, “performed.” for “performed. The resulting dose response curves are fit to a 4 parameter logistic equation and the final result is determined as the inflection point (IP) of the curve”

| SMILES | EC50 [nM] |
| --- | --- |
| Cc1ccc(-c2cnn(CC3(C)CCCC3)c2)c(-c2ccc3c(c2)C(=O)N(C)C3)n1 [Example 27, 2-methyl-6-(6-methyl-3-(1-((1-methylcyclopentyl)methyl)-1H-pyrazol-4-yl)pyridin-2-yl)isoindolin-1-one] | 11 |
| CC1(Cn2cc(-c3c(F)ccnc3-c3ccc4c(c3)C(=O)N(CC3CC3)C4)cn2)CCCC1 [Example 29, 2-(cyclopropylmethyl)-6-(4-fluoro-3-(1-((1-methylcyclopentyl)methyl)-1H-pyrazol-4-yl)pyridin-2-yl)isoindolin-1-one] | 13 |
| Cc1ccc(-c2cnn(CC3(C)CCCC3)c2F)c(-c2ccc3c(c2)C(=O)N(CC2CC2)C3)n1 [Example 30, 2-(cyclopropylmethyl)-6-(3-(5-fluoro-1-((1-methylcyclopentyl)methyl)-1H-pyrazol-4-yl)-6-methylpyridin-2-yl)isoindolin-1-one] | 18 |
| CN1Cc2ccc(-c3nccc(C#N)c3-c3cnn(CC4(C)CCCC4)c3)cc2C1=O [Example 31, 2-(2-methyl-3-oxoisoindolin-5-yl)-3-(1-((1-methylcyclopentyl)methyl)-1H-pyrazol-4-yl)isonicotinonitrile] | 74 |
| CC1(Cn2cc(-c3ccc(F)nc3-c3ccc4c(c3)C(=O)N(C3CC3)C4)cn2)CCCC1 [Example 35, 2-cyclopropyl-6-(6-fluoro-3-(1-((1-methylcyclopentyl)methyl)-1H-pyrazol-4-yl)pyridin-2-yl)isoindolin-1-one] | 9 |
| Cc1cc(-c2cnn(CC3(C)CCCC3)c2)c(-c2ccc3c(c2)C(=O)N(C)C3)nc1Cl [Example 38, 6-(6-chloro-5-methyl-3-(1-((1-methylcyclopentyl)methyl)-1H-pyrazol-4-yl)pyridin-2-yl)-2-methylisoindolin-1-one] | 33 |

Results, then the compound that gave them:

| EC50 [nM] | SMILES |
| --- | --- |
| 10 | Cc1ccc(-c2cnn(CC3(C)CCCC3)c2)c(-c2ccc3c(c2)C(=O)N(C2CC2)C3)n1 [Example 28, 2-cyclopropyl-6-(6-methyl-3-(1-((1-methylcyclopentyl)methyl)-1H-pyrazol-4-yl)pyridin-2-yl)isoindolin-1-one] |
| 7 | CC1(Cn2cc(-c3ccc(C#N)nc3-c3ccc4c(c3)C(=O)N(CC3CC3)C4)cn2)CCCC1 [Example 32, 6-(2-(cyclopropylmethyl)-3-oxoisoindolin-5-yl)-5-(1-((1-methylcyclopentyl)methyl)-1H-pyrazol-4-yl)picolinonitrile] |
| 7 | CC1(Cn2cc(-c3ccc(C#N)nc3-c3ccc4c(c3)C(=O)N(C3CC3)C4)cn2)CCCC1 [Example 33, 6-(2-cyclopropyl-3-oxoisoindolin-5-yl)-5-(1-((1-methylcyclopentyl)methyl)-1H-pyrazol-4-yl)picolinonitrile] |
| 15 | CC1(Cn2cc(-c3ccc(C#N)nc3-c3ccc4c(c3)C(=O)NC4)cn2)CCCC1 [Example 34, 5-(1-((1-methylcyclopentyl)methyl)-1H-pyrazol-4-yl)-6-(3-oxoisoindolin-5-yl)picolinonitrile] |
| 44 | COC(=O)CN1Cc2ccc(-c3nc(C#N)ccc3-c3cnn(CC4(C)CCCC4)c3)cc2C1=O [Example 34A, methyl 2-(6-(6-cyano-3-(1-((1-methylcyclopentyl)-methyl)-1H-pyrazol-4-yl)pyridin-2-yl)-1-oxoisoindolin-2-yl)acetate] |
| 6 | CN1Cc2ccc(-c3nc(F)ccc3-c3cnn(CC4(C)CCCC4)c3)cc2C1=O [Example 36, 6-(6-fluoro-3-(1-((1-methylcyclopentyl)methyl)-1H-pyrazol-4-yl)pyridin-2-yl)-2-methylisoindolin-1-one] |
| 7 | CC1(Cn2cc(-c3ccc(F)nc3-c3ccc4c(c3)C(=O)NC4)cn2)CCCC1 [Example 37, 6-(6-fluoro-3-(1-((1-methylcyclopentyl)methyl)-1H-pyrazol-4-yl)pyridin-2-yl)isoindolin-1-one] |
| 37 | CN1Cc2ccc(-c3nc4c(cc3-c3cnn(CC5(C)CCCC5)c3)CCC4)cc2C1=O [Example 39, 2-methyl-6-(3-(1-((1-methylcyclopentyl)methyl)-1H-pyrazol-4-yl)-6,7-dihydro-5H-cyclopenta[b]pyridin-2-yl)isoindolin-1-one] |
